The record followed here is patent US20140094462A1, “SONIC HEDGEHOG MODULATORS” (priority 2009, published 2014).

Like-named read-outs stand apart in the source and are kept apart here.

The test system of one data set is C3H10T1/2. Briefly: Induction of osteogenic differentiation (modulation of osteoblast differentiation). As to conditions: Mus musculus, C3H 10T1/2, read-out: IC50 (nM) C3H10T1/2.
In the next data set the target is T1, ShhN protein (Homo sapiens, UniProt Q15465).
T1 construct: auto-cleavage of full length Shh into an active 20 kD N-terminal fragment (ShhN); purchased R&D Systems
T1 sequence (Q15465 24-197 limits assumed, species assumed): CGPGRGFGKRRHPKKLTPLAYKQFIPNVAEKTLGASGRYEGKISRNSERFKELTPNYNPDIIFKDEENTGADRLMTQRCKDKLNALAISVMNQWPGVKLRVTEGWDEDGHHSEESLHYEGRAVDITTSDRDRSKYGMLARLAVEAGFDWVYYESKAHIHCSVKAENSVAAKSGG
The experiment in a line: Surface Plasmon Resonance (SPR) protein binding assay on immobilized ShhN. The settings on record: SPR, Biacore T100, ShhN immobilized on CM4 chip, 25° C., compound 0.78 μM-25 μM; read-out: KD. As for the experimental part:
Biacore™ T100 (GE Healthcare, Uppsala, Sweden) was used to perform the experiments described herein. Sensor surface preparation and interaction analyses experiments were performed at 25° C.
Control surfaces were prepared similarly without protein derivatization and were utilized as a reference surfaces for compound binding experiments.
Zero concentration blank buffer cycles were included as negative control samples.
Data analysis was carried out using Biacore T100 evaluation software v1.1.1. […] Solvent correction was then applied as described previously.
Background: SPR reads the build-up and loss of mass on a sensor chip optically.

For data set [1] the following is noted: rcm bond.

Excerpt for C3H10T1/2: Using assays previously described in Dwyer et al., J. Biol. Chem. 282, (2007), 8959-68 and Nakamura et al., Biochm. […] Res. Comm., 237 (1997) 465-9, select compounds of the invention were screened for their ability to modulate osteoblast differentiation.

As a reminder, the Kd is the free concentration of one partner at which half of the binding sites on the other are occupied at equilibrium, for simple one-to-one binding. For the compound `CCN(CC)C(=O)C[C@@H]1C/C=C/CCC(=O)O[C@H](c2ccccc2)CNC1=O` [Example DO, 2-((2R,6S,E)-5,12-dioxo-2-phenyl-1-oxa-4-azacyclododec-8-en-6-yl)-N,N-diethylacetamide], the IC50 in the data set with C3H10T1/2 lay in the range of 1000 to 100000 nM. For the same compound, the Kd at ShhN protein was less than 0.1 µM.
As to `C[C@@H]1CCCCC(F)(F)C(=O)N[C@H](c2ccccc2)COC1=O` [Example L, (3R,11R)-6,6-difluoro-11-methyl-3-phenyl-1-oxa-4-azacyclododecane-5,12-dione], the IC50 with C3H10T1/2 was greater than 100000 nM.
On the same count and under the same terms, with `CS(=O)(=O)N[C@@H]1C/C=C/CCC(=O)N[C@H](c2ccccc2)COC1=O` [Example A, N-((3R,11R,E)-5,12-dioxo-3-phenyl-1-oxa-4-azacyclododec-8-en-11yl)-methane sulfonamide] the figure was less than 100 nM.
Turning to `C[C@@H]1C/C=C/CCC(=O)O[C@H](c2ccccc2)[C@H](C)N(C)C1=O` [Example BC, (2R,3S,6R,E)-3,4,6-trimethyl-2-phenyl-1-oxa-4-azacyclododec-8-ene-5,12-dione], on ShhN protein, the Kd is 1 to 100 µM. Besides, the ring closure, yield of all isomers in data set [1] (from C=CCCC(=O)O[C@H](c1ccccc1)[C@H](C)N(C)C(=O)[C@H](C)CC=C, toluene) amounted to 10%.
The compound `CN1C/C=C/CCC(=O)N[C@H](c2ccccc2)COC1=O` returned a ring closure, yield of all isomers in data set [1] (from C=CCCC(=O)N[C@@H](COC(=O)N(C)CC=C)c1ccccc1, DCM) of 45%.
`C[C@H]1C/C=C/CCC(=O)N[C@@H](c2ccccc2)COC1=O` registered a ring closure, yield of all isomers in data set [1] (from C=CCCC(=O)N[C@H](COC(=O)[C@@H](C)CC=C)c1ccccc1, toluene, 25.0 °C, 16.0 h) of 74%.
In data set [1] (from C=CCCC(=O)N[C@H](C)COC(=O)C(C)(C)CC=C, toluene, 3 steps), `C[C@@H]1COC(=O)C(C)(C)C/C=C/CCC(=O)N1` came in with a ring closure, yield of all isomers of 8%.
For the compound `C[C@@H]1C/C=C/CCC(=O)OC[C@H]2CCCN2C1=O`, the ring closure, yield of all isomers in data set [1] (from C=CCCC(=O)OC[C@H]1CCCN1C(=O)[C@H](C)CC=C, toluene, 3 steps) is 20%.
For the compound `O=C1CC/C=C/C[C@@H](Cc2ccc(Cl)cc2)C(=O)NC[C@@H](c2ccccc2)O1` [Example BQ, (2R,6S,E)-6-(4-chlorobenzyl)-2-phenyl-1-oxa-4-azacyclododec-8-ene-5,12-dione], at ShhN protein, the dissociation constant (Kd) is less than 0.1 µM. The ring closure, yield of all isomers in data set [1] (from C=CCCC(=O)O[C@@H](CNC(=O)[C@@H](CC=C)Cc1ccc(Cl)cc1)c1ccccc1, toluene) worked out at 51%.
For the compound `C[C@H]1C/C=C/CCC(=O)OC[C@@H]2CCCN2C1=O`, the ring closure, yield of all isomers in data set [1] (from C=CCCC(=O)OC[C@@H]1CCCN1C(=O)[C@@H](C)CC=C, toluene, 3 steps) is 25%.
`C[C@@H]1C/C=C/CCCC(=O)N[C@H](c2ccccc2)COC1=O` showed a ring closure, yield of all isomers in data set [1] (from C=CCCCC(=O)N[C@@H](COC(=O)[C@H](C)CC=C)c1ccccc1, toluene) of 67%.
Consider `O=C1CCC=CCN(Cc2ccc(Cl)cc2)C(=O)OC[C@@H](c2ccccc2)N1`, for which the ring closure, yield of all isomers in data set [1] (from C=CCCC(=O)N[C@@H](COC(=O)N(CC=C)Cc1ccc(Cl)cc1)c1ccccc1, toluene) was determined as 25%.
`C[C@@H]1C/C=C/CCC(=O)N[C@H]2CCC[C@@H]2OC1=O` showed a ring closure, yield of all isomers in data set [1] (from C=CCCC(=O)N[C@H]1CCC[C@@H]1OC(=O)[C@H](C)CC=C, toluene) of 25.5%.
Regarding `CC(C)(C)OC(=O)N[C@@H]1C/C=C/CCC(=O)N[C@H](c2ccccc2)COC1=O`, in data set [1] (from C=CCCC(=O)N[C@@H](COC(=O)[C@@H](CC=C)NC(=O)OC(C)(C)C)c1ccccc1, Grubbs II, DCM, 20.0 mM, 25.0 °C, 3.0 h), the ring closure, yield of all isomers turned out to be 64%.
As to `CC(C)(C)OC(=O)N[C@@H]1C/C=C/CCC(=O)OC[C@@H]2CCCN2C1=O`, the ring closure, yield of all isomers in data set [1] (from C=CCCC(=O)OC[C@@H]1CCCN1C(=O)[C@@H](CC=C)NC(=O)OC(C)(C)C, toluene) came out at 19%.
Compound `C[C@@H]1COC(=O)[C@H](C)C/C=C/CCC(=O)N1` yielded a ring closure, yield of all isomers in data set [1] (from C=CCCC(=O)N[C@H](C)COC(=O)[C@H](C)CC=C, toluene, 3 steps) of 38%.
Take `C[C@@H]1C/C=C/C[C@H](C)C(=O)N[C@H](c2cccs2)COC1=O`: the ring closure, yield of all isomers in data set [1] (from C=CC[C@@H](C)C(=O)OC[C@H](NC(=O)[C@@H](C)CC=C)c1cccs1, toluene) is 74.7%.
For `C[C@@H]1C/C=C/CCC(=O)OC[C@@H]2CCCN2C1=O` [Example BD, (9R,14aS,E)-9-methyl-4,5,8,9,12,13,14,14a-octahydro-1H-pyrrolo[2,1-c][1,4]oxaazacyclododecine-3,10-dione], the dissociation constant (Kd) on ShhN protein lay within 1 to 100 µM. In data set [1] (from C=CCCC(=O)OC[C@@H]1CCCN1C(=O)[C@H](C)CC=C, toluene), this compound showed a ring closure, yield of all isomers of 42%.
Turning to `C[C@@H]1CC=CC[C@@H](O[Si](C)(C)C(C)(C)C)C(=O)N[C@H](c2ccccc2)COC1=O`, in data set [1] (from C=CC[C@@H](C)C(=O)OC[C@H](NC(=O)[C@@H](CC=C)O[Si](C)(C)C(C)(C)C)c1ccccc1, toluene), the ring closure, yield of all isomers was 58%.
As for `C[C@H]1C/C=C/CCC(=O)N[C@H](c2ccccc2)COC1=O` [Example BS, (3R,11S,E)-11-methyl-3-phenyl-1-oxa-4-azacyclododec-8-ene-5,12-dione], on ShhN protein, the Kd is greater than 100 µM. For the same compound, the ring closure, yield of all isomers in data set [1] (from C=CCCC(=O)N[C@@H](COC(=O)[C@@H](C)CC=C)c1ccccc1, toluene) is 44%.
On to `C[C@@H]1[C@@H](c2ccccc2)OC(=O)CC/C=C/C[C@@H](NC(=O)OC(C)(C)C)C(=O)N1C`, for which the ring closure, yield of all isomers in data set [1] (from C=CCCC(=O)O[C@H](c1ccccc1)[C@@H](C)N(C)C(=O)[C@@H](CC=C)NC(=O)OC(C)(C)C, toluene) came to 60%.
For `C[C@@H]1CC=CCCC(=O)N[C@@H](c2ccccc2)COC1=O`, the ring closure, yield of all isomers in data set [1] (from C=CCCC(=O)N[C@H](COC(=O)[C@H](C)CC=C)c1ccccc1, toluene, 25.0 °C, 16.0 h) worked out at 72%.
Turning to `CC1C/C=C/CCC(=O)N[C@H](c2ccccc2)COC1` (stereo partly drawn) [(3R,E)-11-methyl-3-phenyl-1-oxa-4-azacyclododec-8-en-5-one], in data set [1] (from C=CCCC(=O)N[C@@H](COCC(C)CC=C)c1ccccc1, toluene, 2 steps), the ring closure, yield of all isomers was determined as 0.5%.
The compound `C[C@@H]1C/C=C/CCC(=O)N[C@H](c2ccccc2)CN(C)C1=O` had a ring closure, yield of all isomers in data set [1] (from C=CCCC(=O)N[C@@H](CN(C)C(=O)[C@H](C)CC=C)c1ccccc1, toluene, 25.0 °C, 16.0 h) of 68%.
In data set [1] (from C=CC[C@@H](C)C(=O)OC[C@H](NC(=O)[C@@H](CC=C)NC(=O)OCC1c2ccccc2-c2ccccc21)c1ccccc1, DCM), `C[C@@H]1C/C=C/C[C@@H](NC(=O)OCC2c3ccccc3-c3ccccc32)C(=O)N[C@H](c2ccccc2)COC1=O` yielded a ring closure, yield of all isomers of 75%.
With `O=C1CC/C=C/CCC(=O)OCC(c2ccccc2)N1` (centres unmarked) [F], the IC50 in the data set on C3H10T1/2 was 100 to 1000 nM.
In data set [1] (from C=CC[C@@H](C)C(=O)OC[C@H](NC(=O)[C@@H](C)CC=C)c1ccccn1, toluene), `C[C@@H]1C/C=C/C[C@H](C)C(=O)N[C@H](c2ccccn2)COC1=O` registered a ring closure, yield of all isomers of 89%.
On to `CC(C)(C)[Si](C)(C)O[C@@H]1C/C=C/CCC(=O)N[C@H](c2ccccc2)COC1=O`, for which, in data set [1] (from C=CCCC(=O)N[C@@H](COC(=O)[C@@H](CC=C)O[Si](C)(C)C(C)(C)C)c1ccccc1, toluene), the ring closure, yield of all isomers is 65%.
`C[C@@H]1C/C=C/CCC(=O)N[C@@H]2c3ccccc3C[C@H]2OC1=O` came in with a ring closure, yield of all isomers in data set [1] (from C=CCCC(=O)N[C@@H]1c2ccccc2C[C@H]1OC(=O)[C@H](C)CC=C, DCM) of 61.8%.
For the compound `C[C@@H]1C/C=C/CC(C)(C)C(=O)N[C@H](c2ccccc2)COC1=O` [Example AY, (3R,11R,E)-6,6,11-trimethyl-3-phenyl-1-oxa-4-azacyclododec-8-ene-5,12-dione], the equilibrium dissociation constant (Kd) at ShhN protein was 1 to 100 µM. This compound also came in with a ring closure, yield of all isomers in data set [1] (from C=CC[C@@H](C)C(=O)OC[C@H](NC(=O)C(C)(C)CC=C)c1ccccc1, toluene) of 81%.
Consider `CCOCCNC(=O)C[C@@H]1C/C=C/CCC(=O)O[C@H](c2ccccc2)[C@H](C)N(C)C1=O` [Example DR, 2-((2R,3S,6S,E)-3,4-dimethyl-5,12-dioxo-2-phenyl-1-oxa-4-azacyclododec-8-en-6-yl)-N-(2-ethoxyethyl)acetamide], for which the IC50 in the data set with C3H10T1/2 was greater than 100000 nM.
For the compound `C[C@H]1[C@@H](c2ccccc2)OC(=O)CC/C=C/C[C@@H](NC(=O)OCC2c3ccccc3-c3ccccc32)C(=O)N1C`, the ring closure, yield of all isomers in data set [1] (from C=CCCC(=O)O[C@H](c1ccccc1)[C@H](C)N(C)C(=O)[C@@H](CC=C)NC(=O)OCC1c2ccccc2-c2ccccc21, toluene) was determined as 16%.
`C[C@@H]1C/C=C/CCC(=O)N[C@H]2CCC[C@H]2OC1=O` yielded a ring closure, yield of all isomers in data set [1] (from C=CCCC(=O)N[C@H]1CCC[C@H]1OC(=O)[C@H](C)CC=C, toluene) of 32.4%.
In turn, `C[C@@H]1C/C=C/CCC(=O)N[C@@H](C)COC1=O` came in with a ring closure, yield of all isomers in data set [1] (from C=CCCC(=O)N[C@@H](C)COC(=O)[C@H](C)CC=C, toluene, 3 steps) of 35%.
In the case of `O=C(C[C@@H]1C/C=C/CCC(=O)N[C@H](C2CCCCC2)COC1=O)NCc1ccc(Cl)cc1` [FU, N-(4-chlorobenzyl)-2-((3R,11S,E)-3-cyclohexyl-5,12-dioxo-1-oxa-4-azacyclododec-8-en-11-yl)acetamide], on ShhN protein, the Kd was greater than 100 µM.
On to `CC1=CC[C@@H](C)C(=O)OC[C@@H](c2ccccc2)NC(=O)CC1`, for which the ring closure, yield of all isomers in data set [1] (from C=CC[C@@H](C)C(=O)OC[C@H](NC(=O)CCC(=C)C)c1ccccc1, toluene, 3 steps) turned out to be 26%.
Turning to `C[C@@H]1C/C=C/CCC(=O)O[C@H](c2ccccc2)CNC1=O` [Compound BP, (2R,6R,E)-6-methyl-2-phenyl-1-oxa-4-azacyclododec-8-ene-5,12-dione], at ShhN protein, the Kd is greater than 100 µM. For the same compound, the ring closure, yield of all isomers in data set [1] (from C=CCCC(=O)O[C@@H](CNC(=O)[C@H](C)CC=C)c1ccccc1, toluene) turned out to be 79%.
